How the values were obtained:
M1R [1] = test system: M1R; set-up: method as in PMID 30089885; details: cited from earlier work
rats = test system: rats; set-up: method as in PMID 30089885; details: cited from earlier work
M1R [2] = test system: M1R; set-up: method as in PMID 30089885; details: at concentrations required for procognitive efficacy; cited from earlier work
SD rats = details: rats, donepezil 0.1 mg/kg p.o. alone; combination study; rats with effect/total
Procedure: Seven‐ or 8‐week‐old SD rats were individually placed into observation cages. After an acclimation period of at least 1 hour, a test compound was administered to the rats. […] Cholinergic side effects, including diarrhea, lacrimation, salivation, miosis, and fasciculation, were assessed blindly, as described previously,27 and convulsion was scored using a modified Racine scale,37 as follows: stage 0, normal; stage 1, immobility; stage 2, forelimb and/or tail extension and rigid posture; stage 3, repetitive movements, head nodding, and gnawing; stage 4, rearing and falling; stage 5, continuous rearing and falling; stage 6, severe tonic‐clonic seizure with loss of postural control; and stage 7, death in the first 2 hours.

[3] = test system: CaMKIIα‐tTA/A53T α‐syn dTg mice; test: Y‐maze task; type: in vivo, mouse; details: 1 mg/kg p.o. (P = .12)
Procedure: The Y‐maze was fabricated from gray plastic and consisted of three arms (40 cm long, 12 cm high, 3 cm wide at the bottom, and 10 cm wide at the top) with an angle of 120°. Visual cues were placed outside each arm, and the apparatus was illuminated at 10 lux. […] An arm entry was defined as all four paws of the mouse being in the arm, and the sequence of arm entries was monitored with a video camera and counted manually. An alternation was defined as successive entries into the three arms on overlapping triplet sets.36 The percentage of alternation was calculated as the ratio of actual to possible alternations (total number of arm entries minus 2) multiplied by 100.

[4] = test system: rats pretreated with scopolamine; set-up: method as in PMID 30089885; details: 0.1 mg/kg; cited from earlier work

Row | SMILES | α‐value (cooperativity) (M1R [1]) | scopolamine‐induced cognitive impairment, combination with an AChEI (rats) | difference between doses improving cognitive function and doses inducing diarrhea (rats; rats) | inhibition of the binding of scopolamine to M1R (M1R [2]) | Convulsion (SD rats) | Fasciculation (SD rats) | Lacrimation (SD rats) | Loose, mucous stool, or diarrhea (SD rats) | Myosis (SD rats) | Salivation (SD rats) | reduced percentage of alternations [3] | scopolamine‐induced NDI reduction, retention trial [4]
1 | Cc1c(Cc2ccc(-n3cccn3)cc2)cc2c(c1F)CN([C@H]1COCC[C@@H]1O)C2=O [TAK‐071] | 199 | synergistically improved | 33 fold | did not inhibit |  |  |  |  |  |  |  | 
2 | COc1cc2c(cc1OC)C(=O)C(CC1CCN(Cc3ccccc3)CC1)C2 (stereo not drawn) [donepezil, reference compound] |  |  |  |  | 0/6 | 0/6 | 0/6 | 0/6 | 0/6 | 0/6 | tended to reverse | subeffective

— article PMC6986443, “T‐495, a novel low cooperative M1 receptor positive allosteric modulator, improves memory deficits associated with cholinergic dysfunction and is characterized by low gastrointestinal side effect risk” (Pharmacology Research & Perspectives, 2020)
